Laboratory results taken from US20240308985A1 (Psy Therapeutics, Inc., priority 2021, published 2024).
Where two headings read alike, the source gives them in different places.

What was measured:
[1] = Pharmacokinetic study of compounds in mice (brain exposure); format: in vivo, male C57BL/6 mice; conditions: oral
Experimental: Healthy male C57BL/6 mice (8-12 weeks old) weighing between 17 to 35 g were procured from Global, India. Temperature and humidity were maintained at 22±f3° C. and 30-70%, respectively and illumination was controlled to give a sequence of 12 hr light and 12 hr dark cycle. Temperature and humidity were recorded by auto-controlled data logger system. All the animals were provided laboratory rodent diet. Reverse osmosis water treated with ultraviolet light was provided ad libitum.
Protocol A: Twenty-four male mice were divided into two groups as; Group 1: 30 mg/kg/IP; Plasma and brain; Number of animals=12: Animal #1-12. Group 2: 30 mg/kg/PO; Plasma and brain; Number of animals=12; Animal #13-24. Animals in Group 1 were administered intraperitoneally with solution formulation of PSY-05-00074-001 in 5% NMP, 5% Solutol HS-15 and 90% normal saline at 30 mg/kg dose. Animals in Group 2 were administered orally with solution formulation of PSY-05-00074-001 in 5% NMP, 5% Solutol HS-15 and 90% normal saline at 30 mg/kg dose. Blood samples (approximately 60 μL) were collected under light isoflurane anesthesia from retro orbital plexus at 0.25, 0.5, 1, 2, 4 and 8 hr (IP and PO). Plasma samples were separated by centrifugation of whole blood and stored below −70° C. until bioanalysis. Immediately after collection of blood from intraperitoneal and oral group animals, animals were euthanized with excess CO2 and brain samples were collected from set of two mice at each time point. Brain samples were divided into two parts. Half brain samples were homogenized using ice-cold phosphate buffer saline (pH—7.4) and homogenates were stored below −70±10° C. until analysis. Total homogenate volume was three times the brain weight. Other part of brain was stored below −70±10° C. for further analysis. All samples were processed for analysis by protein precipitation using acetonitrile and analyzed with fit-for-purpose LC/MS/MS method (LLOQ—2.02 ng/mL for plasma and 6.06 ng/g for brain). Pharmacokinetic parameters were calculated using the non-compartmental analysis tool of Phoenix WinNonlin®.
Protocol B: Thirty six mice were included into the study and divided in to three groups as Group 1 (n=12), Group 2 (n=12) and Group 3 (n=12) with n=2 mice per time-point design. Animals in Group 1 were administered intravenously with solution formulation of PSY-05-00414-001 at 5 mg/kg dose. Animals in Group 2 were administered orally with solution formulation of PSY-05-00414-001 at a dose of 5 mg/kg. Animals in Group 3 were administered intraperitoneally with solution formulation of PSY-05-00414-001 at 5 mg/kg dose. The formulation vehicle for all the three groups was 5% NMP, 5% Solutol HS-15 and 90% normal saline. Blood samples (approximately 60 μL) were collected under light isoflurane anesthesia from two mice at 0.25, 0.5, 1, 2, 4 and 8 h. Plasma was harvested by centrifugation of blood and stored at −70±10° C. until analysis. After blood collection, brain was perfused and isolated at 0.25, 0.5, 1, 2, 4 and 8 h. Brain samples were dipped thrice in ice-cold phosphate buffer saline, blotted dry and cut in to two equal portion. Half-brain samples from each time-point were weighed and homogenized using ice-cold phosphate buffer saline with twice volume of brain weight making the total homogenate three volumes and stored below −70±10° C. until analysis. Remaining half-portions of brain samples was snap freeze and kept in −70±10° C. until further confirmation from client. Plasma and brain samples were quantified by fit-for-purpose LC-MS/MS method (LLOQ: 1.01 ng/mL for plasma and 2.02 ng/mL for brain).
Protocol C: Fifty four male mice were included in study and divided in to three groups as Group 1 (n=18), Group 2 (n=18) and Group 3 (n=18) with 3 mice/time point design. Animals from Group 1, Group 2 and Group 3 were administered by intravenous, oral and intraperitoneal route with solution formulation of PSY-05-00451-001 at 5 mg/kg dose, respectively. […]

[2] = target: Monoacylglycerol Lipase (MAGL) (Homo sapiens (Human), UniProt Q99685); assay: MAGL inhibition potency (IC50) assay with 4NPA substrate; format: biochemical
Chain of Monoacylglycerol Lipase (MAGL) (Q99685 2-303): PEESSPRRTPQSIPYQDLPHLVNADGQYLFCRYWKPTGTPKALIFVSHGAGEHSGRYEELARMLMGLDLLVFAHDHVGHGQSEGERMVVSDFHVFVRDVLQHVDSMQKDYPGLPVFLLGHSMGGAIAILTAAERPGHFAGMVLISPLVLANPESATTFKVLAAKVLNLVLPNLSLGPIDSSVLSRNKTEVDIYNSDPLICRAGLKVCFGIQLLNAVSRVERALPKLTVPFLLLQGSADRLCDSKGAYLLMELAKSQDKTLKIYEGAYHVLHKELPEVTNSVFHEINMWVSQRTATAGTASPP

MAGL enzyme = MAGL enzyme (Homo sapiens (Human), UniProt Q99685); assay: MAGL reversible inhibition assay (washout); format: biochemical; parameters: B: % MAGL activity returning after washout: concentration or dose not given beside the values; conditions: for A: degree to which MAGL enzymatic activity returned following washout of test compounds: pre-washout compound concentration 1 μM; for B: % MAGL activity returning after washout: relative to control (no inhibitor before washout), immediately following a 30 minute washout
Chain of MAGL enzyme (Q99685 whole entry): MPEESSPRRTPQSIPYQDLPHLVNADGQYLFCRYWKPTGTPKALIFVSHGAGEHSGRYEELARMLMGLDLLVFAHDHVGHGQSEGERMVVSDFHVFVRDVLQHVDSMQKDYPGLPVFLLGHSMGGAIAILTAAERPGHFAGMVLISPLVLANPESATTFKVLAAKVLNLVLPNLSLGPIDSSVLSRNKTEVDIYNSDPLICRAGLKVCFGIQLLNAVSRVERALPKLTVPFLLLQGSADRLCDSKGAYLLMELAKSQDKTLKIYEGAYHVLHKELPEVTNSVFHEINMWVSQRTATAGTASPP
Experimental: The reversible mechanism of MAGL inhibition of a test compound of Formula (I) can be determined. Flag-tagged MAGL enzyme will be immobilized on anti-Flag beads. Immobilized enzyme will be incubated +/− inhibitor at a dose that produces complete inhibition. Colorimetric substrate (4-NPA) will be added and the reaction monitored on a plate reader for 30 minutes to verify complete inhibition. Immobilized enzyme will then be washed thoroughly to remove the inhibitor, and fresh substrate will be added. The reaction will be monitored for an additional 30 minutes; returning enzymatic activity will indicate reversibility of inhibition.
MAGL enzyme was incubated for 30 minutes in the presence of 40× the IC50 concentration of inhibitor. Enzyme+inhibitor mix was then diluted 40-fold so that the final concentration of the inhibitor equaled the IC50 concentration. Substrate was added and the reaction was monitored for 30 minutes.

human recombinant FAAH = human recombinant FAAH (Homo sapiens (Human), UniProt O00519); assay: FAAH inhibition potency counter screen (IC50); format: biochemical
Chain of human recombinant FAAH (O00519 whole entry): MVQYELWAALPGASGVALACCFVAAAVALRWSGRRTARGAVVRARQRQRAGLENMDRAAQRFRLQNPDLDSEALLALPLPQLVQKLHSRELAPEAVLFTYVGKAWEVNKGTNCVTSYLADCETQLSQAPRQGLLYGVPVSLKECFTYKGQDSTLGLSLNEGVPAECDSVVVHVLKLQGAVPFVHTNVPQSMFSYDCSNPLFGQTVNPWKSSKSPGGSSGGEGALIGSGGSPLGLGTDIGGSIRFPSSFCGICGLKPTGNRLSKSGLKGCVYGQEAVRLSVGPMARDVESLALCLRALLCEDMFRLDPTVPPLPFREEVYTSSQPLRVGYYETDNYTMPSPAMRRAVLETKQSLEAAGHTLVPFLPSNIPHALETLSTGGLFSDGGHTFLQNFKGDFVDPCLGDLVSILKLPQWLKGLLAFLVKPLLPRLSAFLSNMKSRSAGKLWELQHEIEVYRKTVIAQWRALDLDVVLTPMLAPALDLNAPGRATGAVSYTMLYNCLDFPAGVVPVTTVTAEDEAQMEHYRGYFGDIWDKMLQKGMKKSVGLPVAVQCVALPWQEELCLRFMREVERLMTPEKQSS
Experimental: Comparative compound potency at FAAH can be obtained with the following assay.
MAGL inhibitor compounds were also counter-screened for FAAH inhibition potency using the following assay. Assessment of FAAH inhibition was performed using Fatty Acid Amide Hydrolase Inhibitor Screening Assay Kit (Cayman Item No. 10005196) following manufacture's instruction with some modifications. The kit utilizes human recombinant FAAH and the fluorescent substrate, AMC Arachidonoyl amide (AAMCA). 5 μL of assay buffer (125 mM Tris, pH 9.0, 1 mM EDTA, i.e. ethylenediaminetetraacetic acid) was added to a 384-well black plate (Corning, 3573). Test compounds and control inhibitor JZL-195 (Cayman Chemical, 13668) were tested in 10-concentration IC50 mode with 3-fold serial dilution at a starting concentration of 100 μM and 10 μM, respectively. 300 nL or 30 nL of test compounds were delivered into a 384-well black plate (Corning, 3573) using a Labcyte Echo, followed by addition of 15 μL of FAAH enzyme (Cayman, 700302) in assay buffer. After a 5-minute pre-incubation at room temperature, 10 μL of AAMCA was added in assay buffer to start the reaction. Final concentration of FAAH enzyme is not specified and AAMCA substrate was used at the 20 uM. After these dilutions, the final concentration of the test compounds ranged from 100 μM to 5.08 nM or 10 μM down to 0.508 nM. The reaction was allowed to progress for 60 minutes, while the plate was read on an Envision plate reader at an Ex/Em of 350/460 nm with readings every minute. The data was analyzed in Microsoft Excel, using the slope between 30 and 59 minutes. The average of the no-enzyme wells (background) was subtracted from the data. The background-subtracted slope data was converted to % activity using the average of wells with enzyme and DMSO vehicle. IC50 values were calculated using GraphPad software (Sigmoidal dose response, variable slope equation).
Compounds listed in Table D2 were tested in the FAAH Counterscreen of Example 23

[3] = Method 12: Reaction Biology MAGL enzyme, 15 nM, read-out: MAGL Potency (Detection Method)
[4] = Method A: starting concentration of 100 μM
[5] = Method 2: Cayman Chemical MAGL enzyme, 10 nM, read-out: MAGL Potency (Detection Method)
[6] = Method B: starting concentration of 10 μM

SMILES	IC50 [2, 3] [nM]	A: degree to which MAGL enzymatic activity returned following washout of test compounds (MAGL enzyme)	B: % MAGL activity returning after washout (MAGL enzyme) [%]	IC50 (human recombinant FAAH; [4]) [nM]	further results
O=C(c1ccc(F)cc1OC1CC1)N1CC2(CC(n3nc(-c4ccccc4C(F)(F)F)cc3C(F)(F)F)C2)C1 (single isomer, unassigned) [Compound 451, (2-cyclopropoxy-4-fluorophenyl)(6-{5-(trifluoromethyl)-3-[o-(trifluoromethyl)phenyl]-1-pyrazolyl}-2-aza-2-spiro[3.3]heptyl)methanone]					AUClast ([1]; 5 mg/kg): 1204.22 ng·h/mL; Cmax ([1]; 5 mg/kg): 271.39 ng/g
Cc1cnn(C2CC3(C2)CN(C(=O)c2cc(O)ccc2F)C3)c1-c1cc(F)ccc1F (single isomer, unassigned) [Compound 476, (6-(5-(2,5-Difluorophenyl)-4-methyl-1H-pyrazol-1-yl)-2-azaspiro [3.3]heptan-2-yl) (2-fluoro-5-hydroxyphenyl) methanone]					AUClast ([1]; 5 mg/kg): 223.64 ng·h/mL; Cmax ([1]; 5 mg/kg): 72 ng/g; IC50 ([2]; Method 13: Reaction Biology MAGL enzyme, 12 nM, read-out: MAGL Potency (Detection Method)): 50 to 150 nM
Cc1cnn(C2CC3(C2)CN(C(=O)c2cc(O)ccc2F)C3)c1-c1cc(F)ccc1Cl (single isomer, unassigned) [Compound 519, (6-(5-(2-chloro-5-fluorophenyl)-4-methyl-1H-pyrazol-1-yl)-2-azaspiro [3.3]heptan-2-yl) (2-fluoro-5-hydroxyphenyl) methanone]	50 to 150	155	>50		
Cc1cc(C2CC3(C2)CN(C(=O)c2cc(O)ccc2F)C3)n(-c2ccccc2C)n1 [Compound 74, (2-fluoro-5-hydroxyphenyl)(6-(3-methyl-1-(o-tolyl)-1H-pyrazol-5-yl)-2-azaspiro[3.3]heptan-2-yl)methanone]					AUC(0-t) ([1]; male, C57BL/6, mouse, 30 mg/kg, Protocol A): 117 ng·h/mL; Cmax ([1]; male, C57BL/6, mouse, 30 mg/kg, Protocol A, read-out: Cmax): 102 ng/g
Cc1ccccc1-n1nc(C2CC3(C2)CN(C(=O)c2cc(O)ccc2F)C3)cc1C [Compound 117]				> 10000	
Cc1cc(C2CC3(C2)CN(C(=O)c2ccccc2F)C3)n(-c2ccccc2C)n1 [Compound 122, (2-fluorophenyl)(6-(3-methyl-1-(o-tolyl)-1H-pyrazol-5-yl)-2-azaspiro[3.3]heptan-2-yl)methanone]				> 10000	IC50 [2, 5]: 1000 to 5100 nM
COc1ccc(F)c(C(=O)N2CC3(CC(c4cc(C)nn4-c4ccccc4C)C3)C2)c1 [Compound 123]				> 10000	IC50 ([2]; Method 2: Cayman Chemical MAGL enzyme, 10 nM, read-out: Potency (MAGL inhibition)): > 10000 nM
Cc1cc(C2CC3(C2)CN(C(=O)c2cccc(O)c2)C3)n(-c2ccccc2C)n1 [Compound 125, (3-hydroxyphenyl)(6-(3-methyl-1-(o-tolyl)-1H-pyrazol-5-yl)-2-azaspiro[3.3]heptan-2-yl)methanone]				> 10000	IC50 ([2]; Methods 1, 2, read-out: MAGL Potency (Detection Method)): 50 to 150 nM
Cc1cc(C2CC3(C2)CN(C(=O)c2c(F)ccc(O)c2F)C3)n(-c2ccccc2C)n1 [Compound 127, (2,6-difluoro-3-hydroxyphenyl)(6-(3-methyl-1-(o-tolyl)-1H-pyrazol-5-yl)-2-azaspiro[3.3]heptan-2-yl)methanone]				> 10000	IC50 [2, 5]: 1000 to 5100 nM
O=C(c1cc(O)ccc1F)N1CC2(CC(n3cc(C(F)(F)F)c(-c4ccccc4F)n3)C2)C1 [Compound 473, (2-fluoro-5-hydroxyphenyl){6-[3-(o-fluorophenyl)-4-(trifluoromethyl)-1-pyrazolyl]-2-aza-2-spiro[3.3]heptyl}methanone]	< 50	41	<50		IC50 (human recombinant FAAH; [6]): > 10000 nM
O=C(c1cc(O)ccc1F)N1CC2(CC(n3cc(C4CC4)c(-c4ccccc4F)n3)C2)C1 [Compound 493, {6-[4-cyclopropyl-3-(o-fluorophenyl)-1-pyrazolyl]-2-aza-2-spiro[3.3]heptyl}(2-fluoro-5-hydroxyphenyl)methanone]	< 50	47	<50		IC50 (human recombinant FAAH; [6]): > 10000 nM
Cc1cn(C2CC3(C2)CN(C(=O)c2cc(O)ccc2F)C3)nc1-c1cc(F)ccc1Cl [Compound 520, {6-[3-(2-chloro-5-fluorophenyl)-4-methyl-1-pyrazolyl]-2-aza-2-spiro[3.3]heptyl}(2-fluoro-5-hydroxyphenyl)methanone]	< 50	100	>50		
O=C(c1cc(O)ccc1F)N1CC2(CC(n3ccc(-c4ccccc4C(F)(F)F)n3)C2)C1 [Compound 525, (2-fluoro-5-hydroxyphenyl)(6-{3-[o-(trifluoromethyl)phenyl]-1-pyrazolyl}-2-aza-2-spiro[3.3]heptyl)methanone]	< 50				
O=C(Oc1ccc([N+](=O)[O-])cc1)N1CCC(C(O)(c2ccc3c(c2)OCO3)c2ccc3c(c2)OCO3)CC1 [JZL-184, reference compound]		complete lack of return of MAGL enzymatic activity after washout	<1		
